Data on six compounds can be found in ChEMBL document CHEMBL2311510, “A new single-photon emission computed tomography (SPECT) imaging agent for serotonin transporters: [(125)I]Flip-IDAM, (2-((2-((dimethylamino)methyl)-4-iodophenyl)thio)phenyl)methanol” (Bioorg Med Chem Lett, 2013).

Series [1] concerns the target T1, Sodium-dependent serotonin transporter (Homo sapiens, UniProt P31645). Description: Binding affinity to SERT (unknown origin).
Target sequence in this assay (P31645 whole entry): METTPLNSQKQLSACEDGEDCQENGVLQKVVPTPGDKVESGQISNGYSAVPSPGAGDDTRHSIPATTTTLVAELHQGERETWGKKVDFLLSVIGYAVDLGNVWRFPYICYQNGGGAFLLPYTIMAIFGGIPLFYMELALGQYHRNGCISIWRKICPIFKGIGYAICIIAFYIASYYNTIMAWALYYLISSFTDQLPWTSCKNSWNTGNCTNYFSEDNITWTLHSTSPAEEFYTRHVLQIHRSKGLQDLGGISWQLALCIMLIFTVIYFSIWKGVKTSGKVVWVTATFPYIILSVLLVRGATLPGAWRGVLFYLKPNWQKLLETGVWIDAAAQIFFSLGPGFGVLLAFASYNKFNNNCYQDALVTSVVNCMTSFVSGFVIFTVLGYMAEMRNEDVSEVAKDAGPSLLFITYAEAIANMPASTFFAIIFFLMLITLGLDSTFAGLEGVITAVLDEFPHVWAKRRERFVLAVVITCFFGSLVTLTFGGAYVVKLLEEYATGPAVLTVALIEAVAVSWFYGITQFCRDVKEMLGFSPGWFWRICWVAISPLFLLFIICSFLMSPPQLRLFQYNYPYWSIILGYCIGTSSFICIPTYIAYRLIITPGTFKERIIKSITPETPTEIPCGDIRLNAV
The target in series [2] is T1, Sodium-dependent serotonin transporter. Briefly: Potency index, ratio of Ki of IDAM to Ki of compound for SERT (unknown origin).
Target sequence in this assay (P31645 whole entry, looked up): as the sequence (P31645 whole entry) above
For series [3] the target is unchanged. Briefly: biochemical. It counts as cell-based, LLC-PK1.
Target sequence in this assay (P31645 whole entry): as above
Description: Inhibition of [125I]IDAM uptake at SERT (unknown origin) expressed in LLC-PK1 cell membranes
The target is the same in series [4]. Briefly: Potency index, ratio of Ki of Flip-ADAM to Ki of compound for SERT (unknown origin).
Target sequence in this assay (P31645 whole entry, looked up): as the sequence (P31645 whole entry) above
The test system of the next series is Nucleic Acid. Briefly: Ratio of drug level in hypothalamus to cerebellum in rat measured 60 mins compound dose. The class given is ADME, tissue-based. The conditions noted are these: in vivo, 1 h.
The target of series [5] is T1, Sodium-dependent serotonin transporter. Description: Inhibition of […] uptake at SERT (unknown origin) expressed in LLC-PK1 cell membranes. It counts as cell-based.
Target sequence in this assay (P31645 whole entry): as above

SMILES strings stand for the structures.

As a reminder, the Ki is the equilibrium dissociation constant of an inhibitor or competing ligand from its target. A high value points to a looser hold on the target. For `O=C(OCCF)[C@H]1[C@@H](c2ccc(/C=C\I)cc2)C[C@H]2CC[C@H]1N2`, in series [1], the affinity corresponds to a Ki of 80 pM.

For `CN(C)Cc1ccccc1Sc1ccc([123I])cc1N`, in series [1], the affinity, expressed as Ki, was 13 pM.

On to `CN(C)Cc1cc(I)ccc1Sc1ccccc1CO`, for which the Ratio Ki in series [2] is 3; in series [4], 33. Besides, in series [3], affinity was put at a Ki of 30 pM.

Consider `CN(C)Cc1ccccc1Sc1ccc([123I])cc1CO`, for which the Ratio in the series with Nucleic Acid came to 2.76. The compound also had a Ki in series [1] of 97 pM.

For `CN(C)Cc1cc(I)ccc1Sc1ccccc1N`, in series [3], the inhibition constant Ki is 1000 pM.

On to `CN(C)Cc1ccccc1Sc1ccc(I)cc1CO`, for which affinity in series [5] was put at a Ki of 100 pM.
